Data taken from patent publication US6107549A, “Genetically engineered plant resistance to thiazopyr and other pyridine herbicides” (Monsanto Company, priority 1999, dated 2000).

Experiments:
RLE1 = target: T1, RLE1 (Oryctolagus cuniculus, UniProt P12337); assay: Thiazopyr hydrolysis by RLE1 preparation from Prof. Ozols; format: biochemical, rabbit; settings: purified RLE1 preparation from Prof. Ozols
T1 construct: tissue Professor J. Ozols; host or cells: rabbit liver
T1 sequence (P12337 19-565): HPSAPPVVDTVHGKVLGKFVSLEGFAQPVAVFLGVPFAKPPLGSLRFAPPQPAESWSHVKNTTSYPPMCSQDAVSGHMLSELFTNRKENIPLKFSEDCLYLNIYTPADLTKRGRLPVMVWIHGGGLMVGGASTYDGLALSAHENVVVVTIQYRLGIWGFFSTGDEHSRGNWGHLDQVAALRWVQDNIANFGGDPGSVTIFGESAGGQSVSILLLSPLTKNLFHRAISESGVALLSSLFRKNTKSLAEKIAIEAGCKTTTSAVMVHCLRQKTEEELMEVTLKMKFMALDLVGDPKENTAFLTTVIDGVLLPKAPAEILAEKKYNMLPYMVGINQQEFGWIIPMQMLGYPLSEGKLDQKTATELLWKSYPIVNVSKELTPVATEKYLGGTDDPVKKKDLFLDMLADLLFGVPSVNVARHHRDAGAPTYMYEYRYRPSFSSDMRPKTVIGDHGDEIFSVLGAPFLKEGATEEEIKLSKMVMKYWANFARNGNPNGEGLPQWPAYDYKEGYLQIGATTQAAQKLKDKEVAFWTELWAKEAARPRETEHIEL
Experimental: Esterase activity assays. Esterase activity was measured in vitro by conversion of either [^14 C]thiazopyr or [^14 C]MON 14300 to their corresponding monoacid. Pyridine-esterase activity was assayed during protein purification and from tissue extracts of transgenic plants. The homogenizing buffer for plant tissues consisted of 100 mM Tris pH 8.0, 1 mM EDTA, 1 mM DTT, and 10% glycerol in water. Plant tissues (1 g/ml buffer) including leaves, seeds, flowers, seedlings, etc. were homogenized in conical centrifuge tubes using a spinning pestle at 4° C. Following centrifugation (12,000× g), the supernatant (250 μl) was assayed immediately for esterase activity by incubation with [^14 C]thiazopyr or [^14 C]MON 14300 (4 μg) in 0.1 M Tris pH 8.0 buffer (50 μl) at 37° C. The reaction was sampled (100 μL) at various times (0.5 to 100 hr) to generate a kinetic profile of monoacid formation. The reaction was stopped by addition of 1% trifluoroacetic acid in acetonitrile (v/v, 150 μl). Following centrifugation (12,000× g for 3 min), the supernatant was analyzed by HPLC/RAD (radioactivity detection) to resolve the monoacid from the parent herbicide and other metabolites. Control reactions in the absence of the esterase recovered un-reacted thiazopyr or MON 14300 for the duration of experiments. […]

tomato [1] = assay: Field test for tomato resistance; format: in vivo
Experimental: Field test for tomato resistance. A single field test was conducted in early summer at a Monsanto Company research farm in Jerseyville, Ill. A total of 9 transgenic lines were selected for the field study. […] The remaining 6 lines were R1 seeds selected based on high expression level and seed availability. About 400 seeds were pooled from each line based on uniformity of size and appearance, and randomly separated into 4 groups of about 100 seeds. Four parallel plots (5×20 m) were respectively sprayed with 0, 112, 336, and 673 g/ha of thiazopyr, which was then incorporated down to 7.5 cm of soil depth. The projected field use-rate for thiazopyr is about 280 g/ha. Seeds were placed in a furrow at every 5 cm distance and covered with soil. UC82B seeds were used as untransformed controls. After sowing, 13 mm of water was irrigated over the plots. […] Nevertheless, it was possible to measure thiazopyr resistance based on seedling emergence between control UC82B and the transgenic lines. […] However at 336 g/ha, #8255-30 maintained germination at 10% while UC82B declined to about 1%. […] The transgenic lines flowered, set fruit, and yielded abundant tomatoes and seeds.

tomato [2] = assay: Greenhouse test, pre-plant incorporation (PPI); format: in vivo; settings: 21 DAT
Experimental: Green house test for tomato resistance. Similar studies were also conducted in greenhouse with pre-plant incorporation (PPI) of thiazopyr into the soil. During pre-emergence application of thiazopyr, it is possible that cracks in soil may allow seedlings to escape from exposure to thiazopyr that was sprayed on the soil surface. One way to prevent such escapes is to apply thiazopyr with pre-plant incorporation (PPI). In this method of application, thiazopyr is first incorporated into the soil and seeds are sowed directly into that soil. PPI application of thiazopyr can cause the most plant injury and therefore require lower rates of thiazopyr application.
Tomato seeds were planted in 100 cm^2 pots filled with a sterilized silty loam soil (510 g). Seeds were placed on top of soil, and covered with additional soil (135 g) which was premixed with thiazopyr at equivalent use rates of 0, 34, 45, 67, and 140 g/ha. Greenhouse growing conditions were: 29° C. day to 21° C. night with supplemental lighting as needed to maintain 200-900 μE.
In order to be certain that tomato resistance to thiazopyr in the above PE experiment was not due to escapes, a further experiment in the greenhouse using conducted using PPI application. Plants were visually rated at 21 days after treatment (DAT) based on comparison of % growth to untreated plants, and the results are presented in the bar chart in FIG. 6. […] At the 45 g/ha rate, UC82B was severely injured (10% growth) and the transgenics lines minimally injured (90% growth). At the 67 g/ha rate, UC82B plants were dead and the transgenics were stunted at 40 to 50% growth. […] Both #8255 and #8230 lines expressed the pyridine-esterase at 0.05% of total protein. The term `resistance` in all of these examples can also be expressed as a recombinantly acquired tolerance to the applied levels or rates of pyridine herbicide.

With `COC(=O)c1c(C(F)F)nc(C(F)(F)F)c(C2=NCCS2)c1CC(C)C` [thiazopyr] the thiazopyr hydrolytic activity (RLE1) was “demonstrated thiazopyr hydrolysis”, the thiazopyr hydrolytic activity (RLE1; listed as Thiazopyr) was “could be demonstrated with RLE1” and the germination (tomato [1]; UC82B and #8255-30, 112 g/ha, 21 days after planting) was “slightly lower but still comparable germination”. The germination (tomato [1]; UC82B control, 336 g/ha) was “about 1%”, the germination (tomato [1]; UC82B control, 673 g/ha) was “no germination at all” and the “survival at later time points” value (tomato [1]; UC82B plants that germinated at 112 and 336 g/ha) was “had died due to weakening of the stem at the soil line”. The germination (tomato [1]; transgenic #8255-30, 336 g/ha) was 10%, the germination (tomato [1]; transgenic #8255-30, 673 g/ha) was 4% and the “growth at later time points” value (tomato [1]; transgenic lines showing thiazopyr injury) was “growth was not affected”. The “% growth compared to untreated plants” value (tomato [2]; UC82B control, 34 g/ha PPI) was 75%, the “% growth compared to untreated plants” value (tomato [2]; UC82B control, 45 g/ha PPI) was 10% and the plant condition (tomato [2]; UC82B control, 67 g/ha PPI) was “dead”. For the same compound, the “% growth compared to untreated plants” value (tomato [2]; transgenic #8255 and #8230, 34 g/ha PPI) was 100% and the “% growth compared to untreated plants” value (tomato [2]; transgenic #8255 and #8230, 45 g/ha PPI) was 90%.
